Data: patent US8586611B2 (priority 2005, dated 2013)

How the values were obtained:
Type in all cases: in vivo
Plasmopara viticola = experiment: Test B: grape downy mildew, spray 24 h after inoculation (disease rating, 100 = 100% disease control)
Outline: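 This is a curative spray test, applied 24 h after inoculation. Compounds in 50/50 acetone–water with 250 ppm Trem 014 surfactant were sprayed to run-off on P. viticola-infected seedlings, with 200 ppm equating to 500 g/ha. Plants were kept 5 days in a 20 °C growth chamber, then 24 h humid, and scored 0–100 for disease control relative to controls.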

Phytophthora infestans [1] = experiment: whole plant or invertebrate; settings: tomato late blight
Phytophthora infestans [2] = experiment: whole plant or invertebrate; settings: tomato late blight; remark: listed apart in the source
[3] = tested on: Erysiphe graminis f. sp. tritici; experiment: Test E: wheat powdery mildew, spray the day before inoculation (disease rating, 100 = 100% disease control)
Outline: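 Protective test: spores of E. graminis f. sp. tritici dusted on wheat seedlings one day after run-off spraying of test suspension (acetone/water with 250 ppm surfactant; 200 ppm = 500 g/ha). Ratings after 7 days in growth chamber at 20° C, 100 = full control, 0 = none, relative to controls.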

[4] = tested on: Pseudoperonospora cubensis; experiment: Test F: cucumber downy mildew, DMSO/acetone/water test suspension, spray the day before inoculation (disease rating, 100 = 100% disease control)
Text: The test compounds were first dissolved in dimethyl sulfoxide (DMSO) in an amount equal to 4% of the final volume and then suspended at the desired concentration (in ppm) in acetone and purified water (30/70 mix by volume). The resulting test suspensions were then used in test F. Spraying a 250 ppm test suspension on the test plants was the equivalent of a rate of 250 g/ha.
The test suspension was sprayed on cucumber seedlings. The following day the seedlings were inoculated with a spore suspension of Pseudoperonospora cubensis (the causal agent of cucumber downy mildew) and incubated in a saturated atmosphere at 20° C. for 24 h, and then moved to a growth chamber at 20° C. for 6 days, after which disease ratings were made.
Results for Tests A-F are given in Table A. In the table, a rating of 100 indicates 100% disease control and a rating of 0 indicates no disease control (relative to the controls). A dash (-) indicates no test results.

[5] = spray 24 h after inoculation, compounds without asterisk (not 40 or 10 ppm)
[6] = spray the day before inoculation, compounds without asterisk (not 40 or 10 ppm)
[7] = spray 17 h after inoculation, compounds without asterisk (not 40 or 10 ppm)
[8] = DMSO/acetone/water suspension, spray the day before inoculation, compounds without asterisk
[9] = sprayed 24 h after inoculation, unmarked compounds (no asterisk, not 40 or 10 ppm)
[10] = sprayed the day before inoculation, unmarked compounds (no asterisk, not 40 or 10 ppm)
[11] = sprayed 17 h after inoculation, unmarked compounds (no asterisk, not 40 or 10 ppm)
[12] = sprayed the day before inoculation, 7 days at 20° C., unmarked compounds (no asterisk, not 40 or 10 ppm)
[13] = DMSO/acetone/water test suspension, sprayed the day before inoculation, unmarked compounds (no asterisk)

SMILES | Test B disease rating (100 = 100% disease control, 0 = no disease control) (Plasmopara viticola; [5]) | Test C disease rating (100 = 100% disease control, 0 = no disease control) (Phytophthora infestans [1]; [6]) | Test D disease rating (100 = 100% disease control, 0 = no disease control) (Phytophthora infestans [2]; [7]) | Test E disease rating (100 = 100% disease control, 0 = no disease control) [3, 6] | Test F disease rating (100 = 100% disease control, 0 = no disease control) [4, 8] | Test B disease rating (100 = 100% disease control, 0 = no disease control) (Plasmopara viticola; [9]) | Test C disease rating (100 = 100% disease control, 0 = no disease control) (Phytophthora infestans [1]; [10]) | Test D disease rating (100 = 100% disease control, 0 = no disease control) (Phytophthora infestans [2]; [11]) | Test E disease rating (100 = 100% disease control, 0 = no disease control) [3, 12] | Test F disease rating (100 = 100% disease control, 0 = no disease control) [4, 13]
Cc1ccc(C)c(CC(=O)N2CCC(c3nc(C(=O)N(C)[C@H](C)c4ccccc4F)cs3)CC2)c1 [compound 57] | 100% | 100% | 94% | 50% | 99% | – | – | – | – | –
COc1ccc(Br)cc1CC(=O)N1CCC(c2nc(C(=O)N(C)[C@H](C)c3ccccc3)cs2)CC1 [compound 81] | 100% | 100% | 100% | 0% | 50% | – | – | – | – | –
C[C@@H](NC(=O)c1csc(C2CCN(C(=O)Cc3cccc(Br)c3)CC2)n1)c1ccccc1C(F)(F)F [compound 275] | – | – | – | – | – | 30 | 9 | 0 | 0 | 0
Cc1ccc(C)c(CC(=O)N2CCC(c3nc(C(=O)N(C)C(C)c4cccs4)cs3)CC2)c1 (stereo not drawn) [compound 89] | 100% | 99% | 99% | 43% | 93% | – | – | – | – | –
COc1ccc(C)cc1CC(=O)N1CCC(c2nc(C(=O)N(C)[C@H](C)c3ccccc3)cs2)CC1 [compound 125] | 100% | 100% | 99% | 94% | 100% | – | – | – | – | –
Cc1ccc(C)c(CC(=O)N2CCC(c3nc(C(=O)N(C)C4CCCC(C)C4C)cs3)CC2)c1 (stereo not drawn) [compound 177] | 86% | 100% | 79% | 0% | 43% | – | – | – | – | –
COc1cccc([C@@H](C)N(C)C(=O)c2csc(C3CCN(C(=O)Cc4cc(C)ccc4C)CC3)n2)c1 [compound 69] | 88% | 100% | 0% | 29% | 100% | – | – | – | – | –
Cc1ccc(C(F)(F)F)cc1CC(=O)N1CCC(c2nc(C(=O)N(C)[C@H](C)c3ccccc3)cs2)CC1 [compound 124] | 100% | 100% | 0% | 71% | 90% | – | – | – | – | –
C[C@H](c1ccccc1)N(C)C(=O)c1coc(N2CCN(C(=O)Cc3cccc(Br)c3)CC2)n1 [compound 54] | 11% | 100% | 69% | 0% | 50% | – | – | – | – | –
CC(c1ccccn1)N(C)C(=O)c1csc(C2CCN(C(=O)Cc3cccc(C(F)(F)F)c3)CC2)n1 (stereo not drawn) [compound 75] | 16% | 100% | 72% | 0% | 0% | – | – | – | – | –
C[C@H](c1ccccc1)N(C)C(=O)c1csc(C2CCN(C(=O)Cc3cc(Cl)ccc3Br)CC2)n1 [compound 86] | 99% | 99% | 100% | 0% | 86% | – | – | – | – | –
Cc1ccc(C)c(CC(=O)N2CCC(c3nc(C(=O)N(C)Cc4ccccc4)cs3)CC2)c1 [compound 167] | 27% | 97% | 0% | 0% | 99% | – | – | – | – | –
Cc1ccc(C)c(CC(=O)N2CCC(c3nc(C(=O)N[C@H](C)c4ccccc4)cs3)CC2)c1 [compound 283] | – | – | – | – | – | 48 | 84 | 0 | 0 | 99
Cc1cc(C(F)(F)F)nn1CC(=O)N1CCC(c2nc(C(=O)N(C)C3CCCc4ccccc43)cs2)CC1 (stereo not drawn) [compound 187] | 98% | 100% | 99% | 0% | 93% | – | – | – | – | –
CCCC(c1ccccc1)N(C)C(=O)c1csc(C2CCN(C(=O)Cc3cc(C)ccc3C)CC2)n1 (stereo not drawn) [compound 82] | 100% | 97% | 53% | 55% | 93% | – | – | – | – | –
Cc1ccc(F)cc1CC(=O)N1CCC(c2nc(C(=O)N(C)[C@H](C)c3ccccc3)cs2)CC1 [compound 80] | 99% | 100% | 70% | 29% | 49% | – | – | – | – | –
Cc1ccc(C)c(CC(=O)N2CCC(c3nc(C(=O)N(C)C(C)c4ccccn4)cs3)CC2)c1 (stereo not drawn) [compound 94] | 0% | 100% | 100% | 0% | 93% | – | – | – | – | –
C[C@H](c1ccccc1)N(C)C(=O)c1csc(C2CCN(C(=O)Cc3cc(C(F)(F)F)ccc3C(F)(F)F)CC2)n1 [compound 87] | 79% | 88% | 8% | 0% | 100% | – | – | – | – | –
CC[C@@H](NC(=O)c1csc(C2CCN(C(=O)Cc3cccc(Br)c3)CC2)n1)c1ccccc1 [compound 278] | – | – | – | – | – | 0 | 33 | 0 | 0 | 93
Cc1ccc(C)c(CC(=O)N2CCC(c3nc(C(=O)N(C)C(C)(C)Cc4ccc(F)cc4)cs3)CC2)c1 [compound 175] | 93% | 95% | 0% | 0% | 43% | – | – | – | – | –
Cc1cccc(CC(=O)N2CCN(c3nc(C(=O)N(C)[C@H](C)c4ccccc4)co3)CC2)c1 [compound 52] | 20% | 100% | 74% | 0% | 96% | – | – | – | – | –
